Source: publication PMC12166061, “Crystallographic fragment screening reveals ligand hotspots in TRIM21 PRY-SPRY domain” (Communications Chemistry, 2025)
Read-outs that look alike come from different tables or passages of the source.

How the values were obtained:
[1] = target: T1, full-length hTRIM21 with C-terminal NanoLuc fusion (Homo sapiens, UniProt P19474); experiment: cell-based; details: tracer AL244 (2)
Description: (§4) Full-length hTRIM21 with N- or C-terminal NanoLuc fusion was transfected into HEK293T cells (ATCC) using Fugene 4K (Promega, Cat. No. E5911) transfection reagent according to the manufacturer’s instructions. Following protein expression for 24 h, cells were split again in OptiMEM medium (phenol red free, Life Technologies) to a final amount of 2 × 10^5 cells per mL and 10 µL per well were distributed in a 384 well plate. Next, tracer AL244 (2) was added in concentrations from 3 µM to 6 nM. […] Then, cells were permeabilized through the addition of 25 nL Digitonin (0.05 µg µL^−1). Following another 5-min incubation, filtered luminescence was measured again. The data acquired in the tracer titration was converted into mBRET units (Fluorescence intensity at 610 nm / Luminescence intensity at 450 nm) × 1000 and graphed using Graph-Pad Prism v.9 software.
(§5) A 384-well plate with cells expressing hTRIM21-NLuc was prepared as described above. […] Then, cells were permeabilized with Digitonin and, following 5 min of incubation, filtered luminescence was measured. The data acquired in the competition experiments were converted to mBRET units, then normalized to the positive and negative control and graphed using Graph-Pad Prism v.9 software using a normalized three-parameter curve fit using the following equation: y = 100/[1 + 10(x − logIC50)].

[2] = target: T1, full-length hTRIM21 with C-terminal NanoLuc fusion; details: for cell permeability: inferred from intact versus lysed NanoBRET; for tracer displacement: compound at 500 µM, NanoBRET
Description: as §4, §5

[3] = target: T2, murine TRIM21 PRY-SPRY domain (Mus musculus, UniProt Q62191); experiment: Differential scanning fluorimetry (DSF, ΔTm), mouse TRIM21 PRY-SPRY domain; format: binding; details: 2 mM compound, 8 μM protein
T2 construct: mouse TRIM21 PRY-SPRY domain (residues V291-M470, UniProt-ID: Q62191); made in house; host or cells: E. coli BL21(DE3)
T2 sequence (Q62191 291-470): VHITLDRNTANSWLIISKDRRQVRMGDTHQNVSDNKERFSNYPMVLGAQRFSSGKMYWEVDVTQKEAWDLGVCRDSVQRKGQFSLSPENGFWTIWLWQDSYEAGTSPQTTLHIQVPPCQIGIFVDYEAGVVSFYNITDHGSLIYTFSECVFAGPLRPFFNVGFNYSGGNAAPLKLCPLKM
Description: (§1) Briefly, recombinant murine and human TRIM21 PRY-SPRY domain at a concentration of 8 μM were mixed with 2 mM compound in their respective SEC buffer. SYPRO Orange (5000×, Invitrogen) was added as a fluorescence probe (1 µl per mL). Subsequently, temperature-dependent protein unfolding profiles were measured using the QuantStudio™ 5 realtime PCR machine (Thermo Fisher). Excitation and emission filters were set to 465 nm and 590 nm, respectively. The temperature was raised with a step rate of 3 °C per minute. Data points were analysed with the internal software (Thermal Shift SoftwareTM Version 1.4, Thermo Fisher) using the Boltzmann equation to determine the inflection point of the transition curve.

[4] = target: T3, human TRIM21 PRY-SPRY domain (Homo sapiens, UniProt P19474); experiment: Differential scanning fluorimetry (DSF, ΔTm), human TRIM21 PRY-SPRY domain; format: binding; details: 2 mM compound, 8 μM protein
T3 construct: Human TRIM21 PRY-SPRY domain (residues V287-I465, UniProt-ID: P19474); His6 (N, cleaved yes); SUMO (N, cleaved yes); made in house; host or cells: E. coli BL21(DE3)
T3 sequence (P19474 287-465): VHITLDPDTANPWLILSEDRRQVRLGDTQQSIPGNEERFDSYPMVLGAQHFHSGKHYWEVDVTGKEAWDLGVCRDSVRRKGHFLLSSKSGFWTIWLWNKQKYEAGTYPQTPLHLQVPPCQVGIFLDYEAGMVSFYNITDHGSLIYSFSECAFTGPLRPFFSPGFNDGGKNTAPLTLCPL
Description: as §1

[5] = target: T4, His-SUMO-hTRIM21 PRY-SPRY (Homo sapiens, UniProt P19474); experiment: SPR fragment screening, human TRIM21 PRY-SPRY; format: binding; details: single dose 500 µM fragment; relative response, suramin reference threshold 100 relative RU
T4 construct: Human TRIM21 PRY-SPRY domain (residues V287-I465, UniProt-ID: P19474); made in house; host or cells: E. coli BL21(DE3)
T4 sequence (P19474 287-465): as above
Description: (§2) His-mTRIM21 PRYSPRY and His-SUMO-hTRIM21 PRY-SPRY were immobilized onto flow channels (FC) FC2, FC3, and FC4 of a Series S sensor chip NTA (Cytiva). […] Proteins (10–20 µg mL^−1 in HBS-P+) were injected at 10 µL min^−1 to achieve response levels of 3500–4300 RU for mTRIM21 and 3600–4000 RU for hTRIM21. Flow channel 1 (FC1) was used as a reference surface. Surface deactivation and nickel stripping were achieved using 1 M ethanolamine and 350 mM ethylenediaminetetraacetic acid (EDTA), respectively.
(§3) Fragment screening was conducted by injecting 500 µM fragments diluted in running buffer (HBS-P+ with 1 mM TCEP and 2% (v/v) dimethyl sulfoxide (DMSO)) over all flow-channels for 30 s at 30 µL/min^−1. To account for surface drift, 50 µM of a control compound (Suramin) was injected every 15 fragment injections, and blank injections were performed every 5 fragments. Responses were analyzed by blank subtraction, reference subtraction (FC1), solvent correction, molecular weight adjustment, and drift correction using Biacore T200 Evaluation Software v3.2.1. The binding threshold for fragment hits was set based on the Suramin-binding response level.

His-mTRIM21 PRYSPRY = target: T5, His-mTRIM21 PRYSPRY (Mus musculus, UniProt Q62191); experiment: SPR fragment screening and dose response, mouse TRIM21 PRY-SPRY; format: binding; details: for SPR mTRIM21 (Response): single dose 500 µM fragment, relative response, suramin reference threshold 100 relative RU
T5 construct: mouse TRIM21 PRY-SPRY domain (residues V291-M470, UniProt-ID: Q62191); made in house; host or cells: E. coli BL21(DE3)
T5 sequence (Q62191 291-470): T2 sequence (Q62191 291-470)
Description: as §2, §3
The data was solvent-corrected, reference-subtracted (FC1), and blank-subtracted using the T200 Evaluation Software v3.2.1. Sensorgrams were subsequently replotted using Graphpad v.9 software.

TRIM21 PRY-SPRY domain = experiment: DSF ΔTm of control suramin, species not stated; format: binding; details: at the screening concentration
Description: as §1

TRIM21 [6] = details: mouse TRIM21; read-out: affinity; cited from earlier work
TRIM21 [7] = details: human TRIM21; read-out: affinity; cited from earlier work

T1 sequence (P19474 whole entry, the tested form may be a part): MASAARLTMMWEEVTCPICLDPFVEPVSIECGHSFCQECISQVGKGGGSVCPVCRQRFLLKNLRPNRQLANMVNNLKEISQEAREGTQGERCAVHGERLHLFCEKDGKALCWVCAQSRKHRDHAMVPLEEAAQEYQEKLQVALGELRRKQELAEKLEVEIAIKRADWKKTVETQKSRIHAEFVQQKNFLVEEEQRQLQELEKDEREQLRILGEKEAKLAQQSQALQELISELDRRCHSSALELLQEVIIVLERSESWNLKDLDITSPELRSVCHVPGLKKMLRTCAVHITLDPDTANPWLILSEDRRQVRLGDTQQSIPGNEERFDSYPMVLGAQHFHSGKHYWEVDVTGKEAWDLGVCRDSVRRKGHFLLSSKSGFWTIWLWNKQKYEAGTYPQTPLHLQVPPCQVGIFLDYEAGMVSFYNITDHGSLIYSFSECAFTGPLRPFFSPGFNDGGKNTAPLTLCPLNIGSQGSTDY

Row | Structure (SMILES) | Tm-shift mTRIM21 [3] | tracer displacement [2] | Tm-Shift hTRIM21 [4] | SPR hTRIM21 (Response) [5] | SPR mTRIM21 (Response) (His-mTRIM21 PRYSPRY) | other results
1 | CSc1cc(F)ccc1-c1ccc(C(=O)NCC2CCCCC2)c(S(C)(=O)=O)c1 [AL236 (1)] | – | – | – | – | – | EC50 ([1]; NanoBRET EC50 (intact), intact (live) HEK293T cells): 0.197 µM; EC50 ([1]; NanoBRET EC50 (lysed), permeabilized (lysed mode, digitonin) cells): 0.297 µM; cell permeability [2]: high cell permeability
2 | CCNC1CCN(c2ccncc2)CC1 [Fragment Z2065616520] | 0.4 °C | ~ 40% | 0.6 °C | – | – | –
3 | O=C(Nc1ccc(S(=O)(=O)Nc2ccccn2)cc1)c1ccccc1 [AL257 (3)] | – | displaced the tracer almost completely | – | – | – | EC50 ([1]; NanoBRET EC50 (intact), intact HEK293T cells): 143 µM; EC50 ([1]; NanoBRET EC50 (lysed), lysed cells (digitonin)): 246 µM; cell permeability [2]: effective cell penetration
4 | CN(CCCCNS(=O)(=O)c1ccc(N)cc1)C(=O)c1cccs1 [AL266 (4)] | – | no activity | – | – | – | –
5 | CC(CS(N)(=O)=O)c1ccccc1 (stereo not drawn) [Fragment Z1407673036] | -0.3 °C | – | -0.4 °C | 47.04 | 43.51 | –
6 | Cc1ccc(C(=O)Nc2ccc(S(=O)(=O)O)c3cc(S(=O)(=O)O)cc(S(=O)(=O)O)c23)cc1NC(=O)c1cccc(NC(=O)Nc2cccc(C(=O)Nc3cc(C(=O)Nc4ccc(S(=O)(=O)O)c5cc(S(=O)(=O)O)cc(S(=O)(=O)O)c45)ccc3C)c2)c1 [suramin] | – | – | – | – | – | ΔTm shift (TRIM21 PRY-SPRY domain): 2.3 °C; SPR response of reference (His-mTRIM21 PRYSPRY; suramin injected at 50 µM as reference, species not stated): 100 relative RU; Kd (TRIM21 [6]): ~10 µM; Kd (TRIM21 [7]): ~10 µM
7 | CNC(=O)C1CNCCO1 (stereo not drawn) [Fragment Z1636723439] | 0.4 °C | – | 0.1 °C | 46.15 | 142.5 | –
8 | CC(=O)NC1CNc2ccccc2C1 (stereo not drawn) [Fragment Z1492796719] | -0.1 °C | – | -0.1 °C | 55.11 | 54.86 | –
